From BindingDB's records for doi:10.1021/jm00019a006 (Glaxo Wellcome Medicines Research Centre, 1995)

Assay: The compound was tested for binding affinity against Tachykinin receptor 1 from rabbit cortex

Work on `O=C1OC2(CCN(CCc3c[nH]c4ccc(F)cc34)CC2)CN1Cc1ccccc1` yielded a Ki of 7.94 µM.
